Experimental data: patent publication US11261201B2 (priority 2018, dated 2022)
Converted amounts (≈) assume the structure as drawn. Counter-ions that a name gives are not always drawn. Like-named read-outs stand apart in the source and are kept apart here.

Assays:
[1] = system: E. coli; experiment: Gram negative MIC protocol (OD600, LB, 24 h); conditions: Escherichia coli
Description: (§1) Overnight bacterial cultures were grown in LB with no added antibiotics at 37° C. with shaking. A 1:1000 dilution of these cultures into LB was exposed to concentration gradients of compounds in 96-well plates (100 μL per well assay volume). Resulting plates were incubated at 37° C. for 24 h without shaking, and OD600 was measured at the end of the incubation. MICs were determined as the lowest concentrations at which OD600 remained at baseline.

[2] = system: E. coli K-12; experiment: Resistance development on LB-agar plates, combination therapy; conditions: B1 in combination with anti-LeuS Tavaborole, adjusted for dose equivalence; 10^8 cells plated, 37° C., 24 hours; multiple independent experiments (FIG. 1)
Description: Experimental details: Cultures of E. coli K-12 were started from single colonies on LB-agar plates and were grown in LB for 36 hours with shaking at 37° C. Following that, 10^8 cells were plated on LB-agar plates containing B1 or Tavaborole alone or in combination adjusted for dose equivalence and incubated at 37° C. for 24 hours.

[3] = system: H37RvMA; experiment: Tuberculosis Alamar Blue/Resazurin assay (MIC); type: cell-based; conditions: Mycobacterium tuberculosis, H37RV, read-out: WT H37Rv MTB Activity
[4] = system: A. baumannii; experiment: Gram negative MIC protocol (OD600, LB, 24 h); conditions: Acinetobacter baumannii
Description: as §1

[5] = read-out: MIC E. coli delta-TolC LB Media, E. coli delta-TolC, LB media, OD600
[6] = read-out: MIC WT E. coli LB Media, WT E. coli, LB media, OD600
[7] = read-out: MIC A. baumannii LB Media, A. baumannii, LB media, 24 h, OD600
[8] = read-out: MIC E. coli delta-TolC LB Media, E. coli delta-TolC strain, LB media, 24 h, OD600
[9] = read-out: MIC WT E. coli LB Media, wild-type E. coli, LB media, 24 h, OD600

`C1=C(CCNCc2ccccc2)CCCC1` [B1, N-benzyl-2-(cyclohex-1-en-1-yl)ethan-1-amine] was tested, and the MIC [1, 5] was 46 µM (≈ 9.91 µg/mL), the MIC [1, 6] was 60 µM (≈ 12.9 µg/mL) and the development of resistance [2] was “did not develop resistance”. For the same compound, the MIC [3] was greater than 150 µM and the MIC ([4]; read-out: MIC A. baumannii LB Media) was 150 µM (≈ 32.3 µg/mL).
`c1ccc(CNC2(Cc3ccccc3)CC2)cc1` [B49] gave an MIC [1, 5] greater than 150 µM, an MIC [1, 6] greater than 150 µM and an MIC ([3]; WT H37Rv MTB) greater than 150 µM. For the same compound, the MIC [4, 7] was greater than 150 µM.
`CC(CC1CCCO1)NCc1ccccc1` (centres unmarked) [B20] showed an MIC [1, 5] greater than 150 µM, an MIC [1, 6] greater than 150 µM and an MIC ([3]; WT H37Rv MTB) greater than 150 µM. The MIC [4, 7] was greater than 150 µM.
Compound `CC(CC1CCCCC1)NCc1ccccc1OCc1cccc(F)c1` (centres unmarked) [B383] has an MIC [1, 8] of 2 µM (≈ 0.711 µg/mL), an MIC [1, 9] of 55 µM (≈ 19.6 µg/mL) and an MIC ([3]; WT H37Rv MTB) of 12.2 µM (≈ 4.34 µg/mL). For the same compound, the MIC [4, 7] was 91 µM (≈ 32.4 µg/mL).
With `CC(CC1CCCCC1)NCc1ccccc1OCc1ccccn1` (centres unmarked) [B295] the MIC [1, 8] was 4 µM (≈ 1.35 µg/mL), the MIC [1, 9] was greater than 150 µM and the MIC ([3]; WT H37Rv MTB) was 150 µM (≈ 50.8 µg/mL). It also gave an MIC [4, 7] greater than 150 µM.
`Fc1ccc2c(c1)[C@@H](NCc1ccccc1)CC2` [B208, hydrochloride] was tested, and the MIC [1, 8] was greater than 300 µM, the MIC [1, 9] was greater than 300 µM and the MIC ([3]; WT H37Rv MTB) was greater than 150 µM. The MIC [4, 7] was greater than 300 µM.
Compound `c1ccc(CNCC2CC3CCC2CC3)cc1` (centres unmarked) [B123] has an MIC [1, 5] greater than 150 µM, an MIC [1, 6] greater than 150 µM and an MIC ([3]; WT H37Rv MTB) of 150 µM (≈ 34.4 µg/mL). For the same compound, the MIC [4, 7] was greater than 150 µM.
With `CC1CCCN(C(=O)COc2ccccc2CNC(C)CC2CCCCC2)C1` (centres unmarked) [B273] the MIC [1, 8] was 4 µM (≈ 1.55 µg/mL), the MIC [1, 9] was greater than 150 µM and the MIC ([3]; WT H37Rv MTB) was 150 µM (≈ 58 µg/mL). The MIC [4, 7] was greater than 150 µM.
With `CC(CC1CCCCC1)NCc1ccccc1OCc1ccccc1F` (centres unmarked) [B286] the MIC [1, 8] was 3 µM (≈ 1.07 µg/mL), the MIC [1, 9] was 91 µM (≈ 32.4 µg/mL) and the MIC ([3]; WT H37Rv MTB) was 33 µM (≈ 11.7 µg/mL). The MIC [4, 7] was 91 µM (≈ 32.4 µg/mL).
`c1ccc(CNCCC2CCC2)cc1` [B30] gave an MIC [1, 5] greater than 150 µM, an MIC [1, 6] greater than 150 µM and an MIC ([3]; WT H37Rv MTB) greater than 150 µM. The MIC [4, 7] was greater than 150 µM.
